Read-outs that look alike come from different tables or passages of the source.
Legend:
[1] = molecular target: Human RNR (human M1 subunit and human M2 subunit) (Homo sapiens (Human), UniProt P23921); assay: Human RNR inhibition effect (formation of dCDP from CDP, HPLC); assay type: biochemical
Protocol: The inhibitory activity against the ribonucleotide reduction reaction (hereinafter referred to as RNR reaction) of the test compound was determined by measuring the formation of deoxycytidine diphosphate (hereinafter referred to as dCDP) from cytidine diphosphate (hereinafter referred to as CDP) by the following method.
Human M1 subunit and human M2 subunit (mutant lacking amino terminal 59 amino acids), which are fused a histidine tag at the amino terminus, are overexpressed in Escherichia coli and are solubilized after collection, and histidine tagged human M1 and M2 proteins were purified on a nickel chelate column.
First, test compounds were serially diluted with DMSO. Next, human M1 protein and human M2 protein were added to an aqueous albumin solution derived from 0.02% fetal bovine serum, a DMSO solution of the compound of the present invention or the control DMSO solution (final concentration of DMSO was 1%) was added, and the mixture was allowed to stand for 20 minutes. Thereafter, the reaction buffer [50 mM HEPES buffer (pH 7.2) at the final concentration, 4 mM magnesium acetate at the final concentration, 100 mM potassium chloride at the final concentration, 6 mM dithiothreitol at the final concentration, 2 mM adenosine triphosphate at the final concentration, 0.24 mM nicotinamide adenine dinucleotide phosphate at final concentration] and 10 μM CDP at the final concentration were added and incubated at 37° C. for 30 minutes to perform RNR reaction. Immediately after the reaction, the reaction was stopped by heating at 100° C. for 15 minutes, followed by centrifugation at 10,000 rpm for 10 minutes. After the centrifugation, a portion (5 μL) of the resulting supernatant was analyzed with a high performance liquid chromatography (Shimadzu Corporation, Prominence) using Shim-pack XR-ODS (manufactured by Shimadzu GLC Co., 3.0×100 mm).

[2] = tested on: HCC 1806 cells; assay: Cell proliferation inhibitory effect on human breast cancer cell line (crystal violet, 72 hours); assay type: cell-based; conditions: Homo sapiens, HCC1806, 72 h, read-out: Cell growth suppression IC50
In short: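 Cells were seeded at 2,000/well in RPMI-1640 with 10% FBS and grown 1 day, then exposed to compound for 72 h at 37° C, 5% CO2. After glutaraldehyde fixation and 0.05% crystal violet staining, extracted dye was read at 540 nm. IC50 (μM) came from growth inhibition relative to untreated and cell-free wells.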

[3] = human M1 and M2 subunits, formation of dCDP from CDP, read-out: RNR Enzyme inhibitory activity IC50

Chain of Human RNR (human M1 subunit and human M2 subunit) (P23921 whole entry): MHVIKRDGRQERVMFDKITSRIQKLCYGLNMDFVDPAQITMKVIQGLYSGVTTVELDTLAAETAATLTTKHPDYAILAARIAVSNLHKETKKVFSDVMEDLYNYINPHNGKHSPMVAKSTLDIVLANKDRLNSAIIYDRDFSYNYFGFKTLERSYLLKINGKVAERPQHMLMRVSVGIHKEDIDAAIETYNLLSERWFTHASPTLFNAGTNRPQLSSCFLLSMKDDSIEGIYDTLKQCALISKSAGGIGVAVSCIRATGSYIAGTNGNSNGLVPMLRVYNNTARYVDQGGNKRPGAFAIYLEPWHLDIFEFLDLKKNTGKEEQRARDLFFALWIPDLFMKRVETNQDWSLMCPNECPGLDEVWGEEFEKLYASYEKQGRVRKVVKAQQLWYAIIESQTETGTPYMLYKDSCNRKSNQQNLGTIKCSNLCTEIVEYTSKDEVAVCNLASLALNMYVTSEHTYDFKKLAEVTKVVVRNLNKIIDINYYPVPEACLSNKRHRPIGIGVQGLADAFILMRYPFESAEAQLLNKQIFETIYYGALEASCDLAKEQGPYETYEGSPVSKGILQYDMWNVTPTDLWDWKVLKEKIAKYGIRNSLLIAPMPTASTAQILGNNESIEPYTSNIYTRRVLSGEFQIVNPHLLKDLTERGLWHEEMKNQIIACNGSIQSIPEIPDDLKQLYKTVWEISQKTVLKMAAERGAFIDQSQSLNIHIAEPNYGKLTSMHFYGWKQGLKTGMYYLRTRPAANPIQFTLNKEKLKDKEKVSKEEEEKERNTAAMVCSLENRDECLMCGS

Cc1ccc(F)c([C@@H](C)[C@H](NS(=O)(=O)c2ccc(C(F)(F)F)c3c2OCCC3(C)O)c2n[nH]c(=O)o2)c1C (single isomer, unassigned) [Example 225A]
IC50 [1, 3]: 120 nM
IC50 [2]: 600 nM

Cc1ccc(S(=O)(=O)NC(Cc2ccccc2)c2nnc(S)o2)cc1 (stereo not shown) [Comparative Example 1, reference compound]
IC50 ([1]; human M1 and M2 proteins, 10 μM CDP, 37° C. for 30 minutes, read-out: IC50 (concentration inhibiting the RNR reaction by 50%)): 43000 nM

COc1cc(Cl)ccc1S(=O)(=O)N[C@H](c1n[nH]c(=O)o1)[C@H](C)c1c(F)ccc(-c2ccn(C)n2)c1C [Example 305, 4-chloro-N-((1S,2R)-2-(6-fluoro-2-methyl-3-(1-methyl-1H-pyrazol-3-yl)phenyl)-1-(5-oxo-4,5-dihydro-1,3,4-oxadiazol-2-yl)propyl)-2-methoxybenzenesulfonamide]
IC50 [1, 3]: 240 nM

From patent US10889555B2, “Sulfonamide compound or salt thereof” (Taiho Pharmaceutical Co., Ltd., priority 2016, dated 2021)
